Data set [1] has as its target T1, RalB (Homo sapiens, UniProt P11234).
T1 construct: made in house; host or cells: E. coli BL21(DE3)
T1 sequence (P11234 12-185): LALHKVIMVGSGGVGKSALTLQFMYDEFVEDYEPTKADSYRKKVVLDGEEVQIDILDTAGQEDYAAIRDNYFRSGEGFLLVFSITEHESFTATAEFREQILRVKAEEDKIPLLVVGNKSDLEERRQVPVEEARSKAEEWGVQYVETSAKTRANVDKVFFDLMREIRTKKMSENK
Briefly: Rgl2-mediated guanine nucleotide exchange assay (BODIPY-FL-GDP fluorescence), RalB wild-type. The format is biochemical. To be noted: for improvement in IC50 at 24 h compared to Compound 1: RalB WT. The procedure: Fragment-based screening using a library of 89 sulfonyl fluoride compounds was carried out to explore this possibility. A fluorescence-based guanine nucleotide exchange assay was used to measure inhibition of Rgl2-mediated exchange of Ral-bound GDP with fluorescently-labelled boron-dipyrromethene fluorescent GDP (BODIPY-FL-GDP). The increase in fluorescence intensity of the BODIPY-FL group is measured at 30 s intervals.
(§1) A concentration-dependent exchange study then was carried out to obtain the concentration of compound required for 50% inhibition of Rgl2-mediated exchange, as illustrated in FIG. 1D. This was done by incubating RalB with varying concentrations of Compound 1 for 24 hours at a temperature of 4° C., prior to the initiation of nucleotide exchange by the addition of Rgl2 and BODIPY-FL-GDP. The rate constant was calculated by fitting a 3-parameter exponential function for each measurement. To determine percent inhibition, the fitting was also done for control DMSO samples and samples without Rgl2.
(§2) Exchange Assay: 10 μL of RalB (2 μM), RalA (2 μM), and Ras (0.8 μM) in an exchange assay buffer (100 mM NaCl, 10 mM MgCl2, 20 mM Tris pH 8, 0.01% IGEPAL) were added to a 384-well, black, round bottom, low volume, polystyrene plate (Corning, Corning, N.Y., Catalog Number: 4515) and incubated with 2 μL of varying concentrations of compounds in the exchange assay buffer supplemented with 20% v/v DMSO for 24 h (unless otherwise specified) at 4° C. After the incubation, 5 μL of RGL2 (1 μM), SOS (0.4 μM) or buffer was added. Finally, 3 μL of Bodipy-FL-GDP (1.67 μM for RalA/B, 1.0 μM for Ras) was added and the fluorescence was read immediately on an Envision Multilabel Plate Reader (PerkinElmer, Waltham, Mass.) using a filter set with excitation and emission wavelengths of 485 and 535 nm, respectively, for 40 min at 30 sec intervals.
(§3) The fluorescence increase over time was fitted to an exponential function:
(§4) Fluorescence Intensity=Initial Fluorescence+Extent of binding (1−e^−Rate×Time)
(§5) The rate constant of the exchange was calculated by fitting experimental values for Fluorescence Intensity and corresponding Time. The Initial Fluorescence was estimated from the initial reading of the fluorescence intensity from the experimental control sample without guanine exchange factor (GEF). The Extent of binding is the difference between the maximal fluorescence intensity of the DMSO control sample versus the initial fluorescence recorded for the No GEF control sample.
Percent Inhibition and compound concentration are experimental values.

Data set [2] addresses T2, RalB Tyr82Phe mutant (Homo sapiens, UniProt P11234, Y82F).
T2 construct: made in house; host or cells: E. coli BL21(DE3)
T2 sequence (P11234 12-185 Y82F): T1 sequence (P11234 12-185) with Y71F
Briefly: Rgl2-mediated guanine nucleotide exchange assay, RalB Tyr82Phe mutant. The format is biochemical. The procedure: as §1, with “To confirm that inhibition of RalB exchange by Rgl2 was due to covalent bond formation at Tyr-82, the nucleotide exchange study was repeated using RalB Tyr82Phe mutant. […] A” for “A”
as §2, §3, §4, §5
Percent Inhibition and compound concentration are experimental values. Maximum inhibition is set at 100 percent as no plateau were achieved. Minimum inhibition value was data-dependent and were mostly found to be near 0 percent. Due to the fact that the compounds were covalent inhibitors and not classical reversible inhibitors, Hillslope value was not constrained.

Data set [3] concerns Pa03C pancreatic cancer cell. Briefly: Pa03C pancreatic cancer cell growth in 3-D co-culture with fibroblasts. The format is cell-based. Conditions: relative to media or DMSO.
For data set [4], the target named is T3, RalA (Homo sapiens, UniProt P11233).
T3 construct: made in house; host or cells: E. coli BL21(DE3)
T3 sequence (P11233 1-178): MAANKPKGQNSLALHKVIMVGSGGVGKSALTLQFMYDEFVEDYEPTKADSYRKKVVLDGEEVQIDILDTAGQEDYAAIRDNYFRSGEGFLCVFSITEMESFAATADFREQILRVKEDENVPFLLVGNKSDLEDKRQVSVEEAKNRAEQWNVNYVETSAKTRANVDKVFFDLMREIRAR
Put plainly: Rgl2-mediated guanine nucleotide exchange assay, RalA. The format is biochemical. Conditions: concentration not given. The procedure:
To further probe the contribution of individual amino acids within the binding site of Compound 1, the effect of the compound on the rate of nucleotide exchange was tested against two RalB mutants, Ser85Ala and Thr69Ala.
as §2, §3, §4
The rate constant of the exchange was calculated by fitting experimental values for Fluorescence Intensity and corresponding Time. […]

Data set [5] in a line: Compound stability assay in buffer. The format is physicochemical. The method, then:
Compound Stability Assay. 200 μM Compound 1 was incubated in a buffer containing 20 mM Tris pH 8.0, 100 mM NaCl, 10 mM MgCl2 at 4° C. for varying amounts time. After the incubation, the samples were centrifuged at 20,000×g for 10 min to remove precipitants prior to being injected into an Agilent EclipsePlus C18 RRHD column (Agilent, Santa Clara, Calif.) on an Agilent 1200 liquid chromatography system (Agilent, Santa Clara, Calif.), using a linear gradient from 100% Buffer A (H2O with 0.1% Formic Acid) to 70% Buffer B (acetonitrile with 0.1% Formic Acid), and the masses were detected on an Agilent 6520 Accurate Mass Q-TOF.

The mark [6] stands for this setting: IC50 at 24 h (μM) RalB WT, 24 h incubation at 4° C.

Changes are numbered by the printed parent chain. Read-outs that look alike come from different tables or passages of the source. Where only a bound is given, the exact number is not on record here.

As for `O=S(=O)(F)c1ccc(S(=O)(=O)Nc2cccc(F)n2)cc1` [Compound 6], 51.5 ± 5.2 µM corresponded to half-maximal inhibition in data set [1] (setting [6]) (IC50).
With `O=S(=O)(F)c1ccc(S(=O)(=O)Nc2ncccc2Cl)cc1` [Compound 4], the IC50 in data set [1] (setting [6]) was found to be 41.7 ± 8.5 µM; in data set [2], 215 ± 84.5 µM.
`CCc1ccc(NS(=O)(=O)c2ccc(S(=O)(=O)F)cc2)cn1` [Compound 13] displayed a 50% inhibitory concentration (IC50) in data set [1] (setting [6]) of 164 ± 26 µM.
Consider `O=S(=O)(F)c1ccc(S(=O)(=O)Nc2cccnc2O)cc1` [Compound 3], for which the IC50 in data set [1] (setting [6]) came to 17 ± 7.7 µM; in data set [2] it was 79.3 ± 19 µM.
Turning to `COc1ccc(Cl)c(NS(=O)(=O)c2ccc(S(=O)(=O)F)cc2)n1` [Compound 23], in data set [1] (setting [6]), the IC50 came out at 127 ± 11.7 µM.
As to `COc1ncccc1NS(=O)(=O)c1ccc(S(=O)(=O)F)cc1` [Compound 2], the IC50 in data set [1] (setting [6]) is 23.1 ± 6.8 µM. The “improvement in IC50 at 24 h compared to Compound 1” value in data set [1] came to 2 fold. Moreover, in data set [2] (24 h incubation at 4° C., NI = No Inhibition), the “IC50 at 24 h (μM) RalB Tyr82Phe” value is on record as “no inhibition”.
`COc1ccc(NS(=O)(=O)c2ccc(S(=O)(=O)F)cc2)cc1` [Compound 9]: the IC50 came to 60.3 ± 3 µM in data set [1] (setting [6]) and 100 ± 11.1 µM in data set [2].
In the same order, the values of `COc1cc(Cl)nc(NS(=O)(=O)c2ccc(S(=O)(=O)F)cc2)c1` [Compound 21] are 24 ± 1 µM and 138 ± 34.2 µM.
Taken in the same sequence, the figures for `CCc1cncc(NS(=O)(=O)c2ccc(S(=O)(=O)F)cc2)c1` [Compound 14] were 91.4 ± 2.9 µM and 167 ± 8.7 µM.
Taken in the same sequence, the figures for `CCOc1cncc(NS(=O)(=O)c2ccc(S(=O)(=O)F)cc2)c1` [Compound 15] were 85.5 ± 7.9 µM and 235 ± 167 µM.
As to `O=S(=O)(F)c1ccc(S(=O)(=O)Nc2cccc(Cl)n2)cc1` [Compound 5], in data set [1] (setting [6]), the midpoint of inhibition, the IC50, lay at 24.4 ± 4.9 µM. The “improvement in IC50 at 24 h compared to Compound 1” value in data set [1] amounted to 2 fold.
Turning to `COc1cccc(NS(=O)(=O)c2ccc(S(=O)(=O)F)cc2)n1` [Compound 22], the IC50 in data set [1] (setting [6]) was found to be 64 ± 4.1 µM.
As to `COc1cccc(NS(=O)(=O)c2ccc(S(=O)(=O)F)cc2)c1` [Compound 11], the IC50 in data set [1] (setting [6]) turned out to be 26 ± 4.6 µM; in data set [2] it was 164 ± 42.3 µM.
As to `O=S(=O)(F)c1ccc(S(=O)(=O)Nc2cncc(Cl)n2)cc1` [Compound 7], the IC50 in data set [1] (setting [6]) is 49.4 ± 3.5 µM.
On to `CS(=O)(=O)c1ccc(NS(=O)(=O)c2ccc(S(=O)(=O)F)cc2)cn1` [Compound 10], for which the IC50 in data set [1] (setting [6]) amounted to 147 ± 42 µM; in data set [2], 238 ± 55.4 µM.
Consider `COc1cc(NS(=O)(=O)c2ccc(S(=O)(=O)F)cc2)ccn1` [Compound 12], for which, in data set [1] (setting [6]), the IC50 turned out to be 146 ± 14.2 µM.
`CC(C)Oc1cncc(NS(=O)(=O)c2ccc(S(=O)(=O)F)cc2)c1` [Compound 16]: the IC50 in data set [1] (setting [6]) came out at 79.5 ± 2.3 µM; in data set [2], 333 ± 31 µM.
As for `COc1cncc(NS(=O)(=O)c2ccc(S(=O)(=O)F)cc2)c1` [Compound 1], the IC50 is 153 ± 29.9 µM in data set [1] (IC50 at 6 h, Rgl2-mediated exchange of RalB, 6 h incubation at 4° C.); 49.5 ± 2.3 µM in data set [1] (setting [6]); over 100 µM in data set [2] (read-out: IC50 at 24 h (μM) RalB Tyr82Phe, 24 h incubation at 4° C., NI = No Inhibition).
For `COc1cc(F)cc(NS(=O)(=O)c2ccc(S(=O)(=O)F)c3c2OCCO3)c1` [SOF-531], the “inhibition of Pa03C pancreatic cancer cell growth” value in data set [3] is “concentration-dependent inhibition”.
Regarding `COc1ncccc1NS(=O)(=O)c1ccc(S(=O)(=O)F)c2c1CCCC2` [SOF-371], the “inhibition of RalB exchange” value in data set [1] (24 h incubation at 4° C.) was “inhibits RalA and Ral B exchange”. The “inhibition of Y82F” value in data set [2] (24 h incubation at 4° C.) is on record as “inhibits Y82F”. Also, in data set [4], the “inhibition of RalA exchange” value is “inhibits RalA and Ral B exchange”. The “stability relative to Compound 1” value in data set [5] was “higher stability than Compound 1”.

The term IC50 denotes the point on the concentration scale where inhibition reaches its midpoint.
